{"source": "paper PMC11501026", "about": "“L-Arginine and asymmetric dimethylarginine (ADMA) transport across the mouse blood-brain and blood-CSF barriers: Evidence of saturable transport at both interfaces and CNS to blood efflux” (PLOS ONE, 2024)", "key": {"[1]": {"system": "[3H]-ADMA transport across the blood-brain and blood-CSF barriers", "assay": "cross-inhibition, in situ perfusion: [^3H]-ADMA with 100 μM unlabelled L-arginine", "type": "in vivo, mouse", "set-up": "uptake into choroid plexus / uptake into frontal cortex / uptake into caudate nucleus / uptake into occipital cortex / uptake into hippocampus / uptake into hypothalamus / uptake into thalamus / uptake into cerebellum: unit not given here", "conditions": "male, Balb/c, mouse, other: in situ brain perfusion, 10 mins, Balb/c ♂, 5ml/min", "protocol": "(§1) Self-inhibition experiments were also performed. […] Cross-competition experiments were also performed.\n(§2) The percentage change in the RTissue uptake values achieved in the absence or presence of an unlabelled inhibitor can be calculated by means of Eq 4.\n(§3) %change=RTissue−RInhibition/RTissue×100 Eq 4\n(§4) We define RInhibition as the RTissue uptake in the presence of an inhibitor in the artificial plasma.\n(§5) A decrease in the uptake of radiolabelled solute in the presence of unlabelled inhibitor is indicative of a saturable influx transport system. Conversely, an increase in the uptake of radiolabelled solute in the presence of unlabelled inhibitor is indicative of a saturable efflux transport system."}, "[2]": {"system": "[^3H]-ADMA transport across the blood-brain and blood-CSF barriers", "assay": "cross-inhibition, in situ perfusion: [^3H]-ADMA with 100 μM unlabelled L-arginine", "type": "in vivo, mouse", "set-up": "uptake into choroid plexus / uptake into frontal cortex / uptake into caudate nucleus / uptake into occipital cortex / uptake into hippocampus / uptake into hypothalamus / uptake into thalamus / uptake into cerebellum: unit not given here", "conditions": "[3H] ADMA + [14C] Sucrose + 100uM Arg, 10 mins, Balb/c ♂, 5ml/min; individual mice", "protocol": "as §1, §2, §3, §4, §5"}, "[3]": {"assay": "in situ brain/choroid plexus perfusion: CNS uptake of [^3H]-arginine, [^3H]-ADMA and [^14C]-sucrose (multiple-time and single-time uptake analysis)", "conditions": "Balb/c ♂, 5ml/min"}}, "note": "Values joined by “and” are separate entries in the source; they are usually repeats but may differ in a detail not shown here. Equal entries are not always repeated. Structures can show the parent of a compound that is named as a salt. Where two headings read alike, the source gives them in different places."}
{"compound": "CN(C)C(N)=NCCC[C@H](N)C(=O)O", "note": "[ADMA, N^G,N^G-dimethylarginine dihydrochloride]", "values": [{"measurement": "Kp at 10 min, 62.5 nM", "setting": "[1]; hypothalamus, with 100 µM unlabelled L-arginine, Difference (ADMA minus Sucrose), hypothalamus, + 100uM Arg, individual mice", "result": 0.0699}, {"measurement": "Kp at 10 min, 62.5 nM", "setting": "[1]; hypothalamus, with 100 µM unlabelled L-arginine, Difference (ADMA minus Sucrose), hypothalamus, + 100uM Arg, mean", "result": 0.0777}, {"measurement": "Kp at 10 min, 62.5 nM", "setting": "[1]; hypothalamus, with 100 µM unlabelled L-arginine, [3H] ADMA + [14C] Sucrose + 100uM Arg, individual mice, read-out: uptake into hypothalamus", "result": 0.105}, {"measurement": "Kp at 10 min, 62.5 nM", "setting": "[1]; hypothalamus, with 100 µM unlabelled L-arginine, [3H] ADMA + [14C] Sucrose + 100uM Arg, mean, read-out: uptake into hypothalamus", "result": 0.11}, {"measurement": "Kp at 10 min, 62.5 nM", "setting": "[1]; occipital cortex, with 100 µM unlabelled L-arginine, Difference (ADMA minus Sucrose), occipital cortex, + 100uM Arg, mean", "result": 0.048}, {"measurement": "Kp at 10 min, 62.5 nM", "setting": "[1]; occipital cortex, with 100 µM unlabelled L-arginine, [3H] ADMA + [14C] Sucrose + 100uM Arg, mean, read-out: uptake into occipital cortex", "result": 0.0669}, {"measurement": "Kp at 10 min, 62.5 nM", "setting": "[1]; pineal gland, with unlabelled L-arginine 100 µM, Difference (ADMA minus Sucrose), pineal gland, + 100uM Arg, mean", "result": 0.613}, {"measurement": "Kp at 10 min, 62.5 nM", "setting": "[1]; pineal gland, with unlabelled L-arginine 100 µM, [3H] ADMA + [14C] Sucrose + 100uM Arg, mean, read-out: uptake into pineal gland", "result": 0.915}, {"measurement": "Kp at 10 min, 62.5 nM", "setting": "[1]; pituitary gland, with 100 µM unlabelled L-arginine, Difference (ADMA minus Sucrose), pituitary gland, + 100uM Arg, mean", "result": 0.487}, {"measurement": "Kp at 10 min, 62.5 nM", "setting": "[1]; pituitary gland, with 100 µM unlabelled L-arginine, [3H] ADMA + [14C] Sucrose + 100uM Arg, mean, read-out: uptake into pituitary gland", "result": 0.6}, {"measurement": "Kp at 10 min, 62.5 nM", "setting": "[1]; pons, with 100 µM unlabelled L-arginine, Difference (ADMA minus Sucrose), pons, + 100uM Arg, mean", "result": 0.0483}, {"measurement": "Kp at 10 min, 62.5 nM", "setting": "[1]; pons, with 100 µM unlabelled L-arginine, [3H] ADMA + [14C] Sucrose + 100uM Arg, mean, read-out: uptake into pons", "result": 0.0946}, {"measurement": "Kp at 10 min, 62.5 nM", "setting": "[1]; thalamus, with 100 µM unlabelled L-arginine, Difference (ADMA minus Sucrose), thalamus, + 100uM Arg, mean", "result": 0.0566}, {"measurement": "Kp at 10 min, 62.5 nM", "setting": "[1]; thalamus, with 100 µM unlabelled L-arginine, [3H] ADMA + [14C] Sucrose + 100uM Arg, mean, read-out: uptake into thalamus", "result": 0.0793}, {"measurement": "uptake into caudate nucleus", "setting": "[2]", "result": "0.06709 and 0.08883 and 0.04583 and 0.07378"}, {"measurement": "uptake into cerebellum", "setting": "[2]", "result": "0.04812 and 0.06526 and 0.1041 and 0.02606 and 0.09306"}, {"measurement": "uptake into choroid plexus", "setting": "[2]", "result": "0.5896 and 0.666 and 0.4457 and 0.7681"}, {"measurement": "uptake into frontal cortex", "setting": "[2]", "result": "0.07007 and 0.07553 and 0.1227 and 0.05236 and 0.1082"}, {"measurement": "uptake into hippocampus", "setting": "[2]", "result": "0.04437 and 0.05436 and 0.09956 and 0.03726 and 0.0687"}, {"measurement": "uptake into hypothalamus", "setting": "[2]", "result": "0.1376 and 0.1261 and 0.09757 and 0.08557"}, {"measurement": "uptake into occipital cortex", "setting": "[2]", "result": "0.04352 and 0.05773 and 0.1002 and 0.05331 and 0.07955"}, {"measurement": "uptake into pituitary gland", "setting": "[2]", "result": "0.3174 and 0.8724 and 1.123 and 0.09502 and 0.5936"}, {"measurement": "uptake into pons", "setting": "[2]", "result": "0.0747 and 0.145 and 0.1344 and 0.05028 and 0.06842"}, {"measurement": "uptake into thalamus", "setting": "[2]", "result": "0.04368 and 0.06682 and 0.145 and 0.05879 and 0.08201"}, {"measurement": "Difference (ADMA minus Sucrose), choroid plexus", "setting": "[3]; 2.5 mins, individual mouse", "result": "0.4619 (2×) and 1.038 and 0.6787 and 0.7164"}, {"measurement": "Difference (ADMA minus Sucrose), pineal gland", "setting": "[3]; 2.5 mins, individual mouse", "result": "0.0119 (2×) and 0.6055 and 0.1704 and 0.3775"}, {"measurement": "[3H] ADMA and [14C] Sucrose uptake, choroid plexus", "setting": "[3]; 2.5 mins, individual mouse", "result": "1.245 and 0.8202 and 0.645 and 0.9198"}, {"measurement": "[3H] ADMA and [14C] Sucrose uptake, frontal cortex", "setting": "[3]; 2.5 mins, individual mouse, in mL/100 g", "result": "0.1518 and 0.0919"}, {"measurement": "Difference (ADMA minus Sucrose), caudate nucleus", "setting": "[3]; 30 mins, individual mice", "result": "0.07868 and 0.2155 and 0.07884 and 0.04051 and 0.09553"}, {"measurement": "Difference (ADMA minus Sucrose), choroid plexus", "setting": "[3]; 30 mins, individual mice", "result": "0.4322 and 0.7701 and 0.2962 and 0.1895 and 0.3495"}, {"measurement": "Difference (ADMA minus Sucrose), frontal cortex", "setting": "[3]; 30 mins, individual mice", "result": "0.08507 and 0.2094 and 0.08399 and 0.04504 and 0.09711"}, {"measurement": "Difference (ADMA minus Sucrose), occipital cortex", "setting": "[3]; 30 mins, individual mice", "result": "0.09101 and 0.202 and 0.09058 and 0.04293 and 0.1128"}, {"measurement": "Difference (ADMA minus Sucrose), pineal gland", "setting": "[3]; 30 mins, individual mice", "result": "0.4361 and 1.061 and 0.1804 and 0.1286 and 0.2721"}, {"measurement": "Difference (ADMA minus Sucrose), caudate nucleus", "setting": "[3]; 30 mins, mean", "result": 0.1018}, {"measurement": "Difference (ADMA minus Sucrose), choroid plexus", "setting": "[3]; 30 mins, mean", "result": 0.4075}, {"measurement": "Difference (ADMA minus Sucrose), frontal cortex", "setting": "[3]; 30 mins, mean", "result": 0.1041}, {"measurement": "Difference (ADMA minus Sucrose), caudate nucleus", "setting": "[3]; CONTROL, 10 mins, mean", "result": 0.2407}, {"measurement": "Difference (ADMA minus Sucrose), cerebellum", "setting": "[3]; CONTROL, 10 mins, mean", "result": 0.1615}, {"measurement": "Difference (ADMA minus Sucrose), choroid plexus", "setting": "[3]; CONTROL, 10 mins, mean", "result": 2.6086}, {"measurement": "Difference (ADMA minus Sucrose), frontal cortex", "setting": "[3]; CONTROL, 10 mins, mean", "result": 0.2494}, {"measurement": "Difference (ADMA minus Sucrose), hippocampus", "setting": "[3]; CONTROL, 10 mins, mean", "result": 0.2174}, {"measurement": "Difference (ADMA minus Sucrose), hypothalamus", "setting": "[3]; CONTROL, 10 mins, mean", "result": 0.3042}, {"measurement": "Difference (ADMA minus Sucrose), occipital cortex", "setting": "[3]; CONTROL, 10 mins, mean", "result": 0.2252}, {"measurement": "Difference (ADMA minus Sucrose), pituitary gland", "setting": "[3]; CONTROL, 10 mins, mean", "result": 1.829}, {"measurement": "Difference (ADMA minus Sucrose), pons", "setting": "[3]; CONTROL, 10 mins, mean", "result": 0.2464}]}
